Test results taken from US11471506B2, “VIP antagonists and uses in treating cancer” (Emory University, priority 2018, dated 2022).
“Also recorded” adds a separate entry of the source. Ends that are not written are not given here.

Legend:
[1] = system: luciferase expressing splenocytes from B6 mice; test: splenocyte co-culture with irradiated B16F1 and B16F10 cells, proliferation by BLI; type: cell-based, mouse; details: co-culture with irradiated B16 cells, anti-CD3 pre-coated plates, low-dose IL-2, 3 days
Method: Splenocytes isolated from 3 naïve luciferase+ B6 mouse were cultured with irradiated B16 cells and with or without VIPhyb in triplicate, and proliferation measured with BLI.
Whether combination of a VIPhyb with a PD-1 inhibitor could enhance an adaptive immune response to the more aggressive B16F10 model in vitro was investigated. Therefore, irradiated B16F1 and B16F10 cells were co-cultured with luciferase expressing splenocytes from B6 mice. Cells were placed in 96-well plates pre-coated with anti-CD3 antibody and low-dose recombinant murine IL-2 for 3 days and assessed proliferation by BLI.

[2] = system: T cells; test: in vitro T cell proliferation in response to stimulation with anti-CD3 antibodies, with or without exogenous VIP; type: cell-based; details: for reversal / block of the suppressive effect of exogenous VIP on T cell proliferation: exogenous VIP peptide added
Method: Whether VIPhyb treatment would enhance T cell activation and cytotoxicity in response to melanoma, which can be highly immunogenic, was tested.
The anticancer activity of treatment with VIPhyb appears to be T cell mediated.

[3] = system: B16F1 cells; test: B16F1 melanoma syngeneic model in B6 Albino mice, VIPhyb alone; type: in vivo, mouse
Method: To investigate VIPhyb as an immunotherapy for melanoma, and to determine the best route of administration, Luciferase-expression B16F1 cells were injected into B6 Albino syngeneic recipients and given 10 μg of VIPhyb peritumorally or subcutaneously on the contralateral flank beginning 1 day before tumor inoculation and continuing daily until the experimental endpoint.
Whether VIPhyb has an effect on adaptive immunity was testes. Mice with tumors that exceeded 500 mm^3 in volume were euthanized and their splenocytes phenotyped using flow cytometry. Blood was also collected for a complete blood count (CBC) to determine amount of peripheral white blood cells (WBCs). Of particular interest was the expansion of CD8+ T cells to corroborate the in vitro data, and expression of the inhibitory molecule PD-1.

[4] = system: melanoma; test: direct effect of VIPhyb on melanoma cells; type: cell-based; details: melanoma expressing VPAC2
[5] = system: B16F10 cells; test: B16F10 melanoma model in B6 Albino mice, VIPhyb and/or anti-PD-1 antibody; type: in vivo, mouse; details: VIPhyb 10 μg s.c. daily for 10 days, PD-1 antibody 200 μg i.p. every 3 days, three doses, versus untreated
Method: Tumor volumes were calculated as […].
B16F10 cells were injected into B6 Albino mice. VIPhyb (10 μg) was administered subcutaneously every day for 10 days. Three doses of 200 μg of an PD-1 antibody was intraperitoneally administered every 3 days. A combination both VIPhyb and the PD-1 antibody were also administered.

[6] = system: KPC luc pancreatic cancer cells; test: MTT assay of viable KPC luc cells after VIPhyb; type: cell-based, murine; details: 0, 0.5, 1, 3 and 5 uM VIPhyb, 24 hours
Method: KPC luc pancreatic cancer cells were cultured in a 96 well plate for 24 hours with different concentrations of VIPhyb (0, 0.5, 1, 3 and 5 uM). Number of viable cells after 24 hours were quantified via MTT assay.

[7] = in vitro stability of the peptide on the nanoparticle; type: physicochemical; details: nanoparticle-conjugated peptide

KPRRPYTDNYTRLRKQMAVKKYLNSILN [VIPhyb, hybrid peptide of neurotensin (6-11) and VIP (7-28); antagonist of VIP signalling]
splenocyte / T cell proliferation [1]: not enough to promote expansion of splenocytes; also recorded: lack of splenocyte proliferation
in vitro T cell proliferation in response to stimulation with anti-CD3 antibodies [2]: dose-dependent enhancement
reversal / block of the suppressive effect of exogenous VIP on T cell proliferation [2]: reversal of the suppressive effect of exogenous VIP peptide; also recorded: reversed exogenous VIP mediated splenic T cell suppression
survival ([3]; B16F1, 10 μg VIPhyb daily): no significant difference
tumor volume / tumor growth ([3]; B16F1, 10 μg VIPhyb daily, digital calipers twice weekly, versus untreated): no significant change; also recorded: did not have a significant effect; also recorded: does not affect tumor size
overall tumor burden by bioluminescent imaging ([3]; B16F1, once weekly BLI): no tumor reduction
peripheral WBCs ([3]; peripheral blood, complete blood count): nonsignificant modest increase
tumor burden between the two routes of administration ([3]; peritumorally versus subcutaneously on the contralateral flank): no difference in tumor burden
B cells ([3]; spleen upon euthanasia): nonsignificant increase
NK cells ([3]; spleen upon euthanasia): nonsignificant increase
dendritic cell subtypes ([3]; spleen upon euthanasia): nonsignificant increase
CD4+ T cells ([3]; spleen upon euthanasia, flow cytometry): nonsignificant modest increase
CD8+ T cells ([3]; spleen upon euthanasia, flow cytometry, versus PBS/saline-treated controls): significantly more; also recorded: Increased CD8+ T cell Proliferation; also recorded: more effector CD8+ T cells; also recorded: bolsters CD8+ proliferation
frequency of IFNγ, TNF, Granzyme B, and IL-2-producing cells in the CD4+ and CD8+ compartments ([3]; spleen, intracellular cytokine staining, versus PBS treated controls): no significant difference
frequency of CD4+ and CD8+ T cells expressing PD-1, CTLA-4, and Lag-3 ([3]; spleen, versus PBS treated controls): no significant difference
direct effect on melanoma growth, invasiveness, and modulation of inhibitory surface molecules [4]: absence of a direct effect
tumor volume / tumor growth [5]: lower average tumor volume
number of viable cells (direct killing) [6]: does not directly kill

VIPhyb-NP: VIPhyb with C-terminal GGGGSC linker (SEQ ID NO: 3) conjugated to a 30 nm Pluronic-stabilized polypropylene sulfide nanoparticle (KPRRPYTDNYTRLRKQMAVKKYLNSILNGGGGSC; also: conjugated to 30 nm Pluronic-stabilized polypropylene sulfide nanoparticle)
in vitro T cell proliferation in response to stimulation with anti-CD3 antibodies [2]: conserved
reversal / block of the suppressive effect of exogenous VIP on T cell proliferation [2]: able to block the effects of exogenous VIP at higher concentrations
potency of the nanoparticle formulation ([2]; nanoparticle formulation versus free peptide): increased potency
stabilization of the peptide in vitro [7]: stabilize the peptide in vitro
